In PubChem BioAssay AID2060508 (Molecular Pharmacology Branch, DTP, NCI, 2025):
pIC50: −log10 of the molar value.

Tested on: 454973-116-R2-J3-PDC spheroids, viability, % test/control
Experiment: Anticancer human tumor 454973-116-R2-J3-PDC patient-derived pancreatic carcinoma cell line growth inhibition [GQUAD]
Conditions: spheroids with HUVEC and MSC; for pIC50: curve of first compound; for viability, T/C: stronger effect = lower value
Summary of the method: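 Viability of tumor cells grown as complex spheroids with endothelial and stromal cells, exposed to drug combinations. Top concentration at or near clinical Cmax (else 10 microM), diluted in half-log increments.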

[1] = second compound 0.0316 µM, first compound 0.0316 µM
[2] = second compound 0.0316 µM, first compound 0.1 µM
[3] = second compound 0.0316 µM, first compound 0.316 µM
[4] = second compound 0.0316 µM, first compound 1 µM
[5] = second compound 0.0316 µM, first compound 3.16 µM
[6] = second compound 0.0316 µM, first compound 10 µM
[7] = second compound 0.1 µM, first compound 0.0316 µM
[8] = second compound 0.1 µM, first compound 0.1 µM
[9] = second compound 0.1 µM, first compound 0.316 µM
[10] = second compound 0.1 µM, first compound 1 µM
[11] = second compound 0.1 µM, first compound 3.16 µM
[12] = second compound 0.1 µM, first compound 10 µM
[13] = second compound 0.316 µM, first compound 0.0316 µM
[14] = second compound 0.316 µM, first compound 0.1 µM
[15] = second compound 0.316 µM, first compound 0.316 µM
[16] = second compound 0.316 µM, first compound 1 µM
[17] = second compound 0.316 µM, first compound 3.16 µM
[18] = second compound 0.316 µM, first compound 10 µM
[19] = second compound 1 µM, first compound 0.0316 µM
[20] = second compound 1 µM, first compound 0.1 µM
[21] = second compound 1 µM, first compound 0.316 µM
[22] = second compound 1 µM, first compound 1 µM
[23] = second compound 1 µM, first compound 3.16 µM
[24] = second compound 1 µM, first compound 10 µM
[25] = second compound 3.16 µM, first compound 0.0316 µM
[26] = second compound 3.16 µM, first compound 0.1 µM
[27] = second compound 3.16 µM, first compound 0.316 µM
[28] = second compound 3.16 µM, first compound 1 µM
[29] = second compound 3.16 µM, first compound 3.16 µM
[30] = second compound 3.16 µM, first compound 10 µM
[31] = second compound 10 µM, first compound 0.0316 µM
[32] = second compound 10 µM, first compound 0.1 µM
[33] = second compound 10 µM, first compound 0.316 µM
[34] = second compound 10 µM, first compound 1 µM
[35] = second compound 10 µM, first compound 3.16 µM
[36] = second compound 10 µM, first compound 10 µM
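Note: spheroids exposed to compounds for seven days.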
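Throughout, for viability, T/C: 100% = DMSO vehicle control viability.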

## C=CCn1c(=O)c2cnc(Nc3ccc(N4CCN(C)CC4)cc3)nc2n1-c1cccc(C(C)(C)O)n1 + Cc1[nH]c2ccc(F)cc2c1-c1nc2c3cccnc3c3ncccc3c2[nH]1
Second compound 0.0316 µM
  pIC50: 6.44
Second compound 0.1 µM
  pIC50: 6.32
Second compound 0.316 µM
  pIC50: 6.40
Second compound 1 µM
  pIC50: 6.36
Second compound 3.16 µM
  pIC50: 6.47
Second compound 10 µM
  pIC50: 6.47
[1]
  viability, T/C: 124%
[2]
  viability, T/C: 92.8%
[3]
  viability, T/C: 60.4%
[4]
  viability, T/C: 15.3%
[5]
  viability, T/C: 7.69%
[6]
  viability, T/C: 10.2%
[7]
  viability, T/C: 101%
[8]
  viability, T/C: 95.5%
[9]
  viability, T/C: 69.8%
[10]
  viability, T/C: 15%
[11]
  viability, T/C: 6.68%
[12]
  viability, T/C: 11.6%
[13]
  viability, T/C: 105%
[14]
  viability, T/C: 99%
[15]
  viability, T/C: 58.7%
[16]
  viability, T/C: 16.7%
[17]
  viability, T/C: 7.33%
[18]
  viability, T/C: 12.1%
[19]
  viability, T/C: 111%
[20]
  viability, T/C: 96.2%
[21]
  viability, T/C: 63.4%
[22]
  viability, T/C: 18.3%
[23]
  viability, T/C: 6.95%
[24]
  viability, T/C: 12.4%
[25]
  viability, T/C: 101%
[26]
  viability, T/C: 98.6%
[27]
  viability, T/C: 51.8%
[28]
  viability, T/C: 14.2%
[29]
  viability, T/C: 7.78%
[30]
  viability, T/C: 12.1%
[31]
  viability, T/C: 100%
[32]
  viability, T/C: 78.4%
[33]
  viability, T/C: 57.6%
[34]
  viability, T/C: 14.1%
[35]
  viability, T/C: 7.95%
[36]
  viability, T/C: 12.3%

## CC(C)(O)C1CCC(Nc2ccc3ncc(-c4cccc(C(F)(F)F)c4)n3n2)CC1 (stereo not drawn) + Cc1[nH]c2ccc(F)cc2c1-c1nc2c3cccnc3c3ncccc3c2[nH]1
Second compound 0.0316 µM
  pIC50: 5.73
Second compound 0.1 µM
  pIC50: 5.73
Second compound 0.316 µM
  pIC50: 5.74
Second compound 1 µM
  pIC50: 5.80
Second compound 3.16 µM
  pIC50: 5.79
Second compound 10 µM
  pIC50: 5.86
[1]
  viability, T/C: 112%
[2]
  viability, T/C: 97.4%
[3]
  viability, T/C: 96.6%
[4]
  viability, T/C: 76.8%
[5]
  viability, T/C: 21.8%
[6]
  viability, T/C: 32.2%
[7]
  viability, T/C: 108%
[8]
  viability, T/C: 100%
[9]
  viability, T/C: 92.1%
[10]
  viability, T/C: 78.1%
[11]
  viability, T/C: 23.1%
[12]
  viability, T/C: 29.8%
[13]
  viability, T/C: 102%
[14]
  viability, T/C: 98.1%
[15]
  viability, T/C: 105%
[16]
  viability, T/C: 78.4%
[17]
  viability, T/C: 18.3%
[18]
  viability, T/C: 31.6%
[19]
  viability, T/C: 98.2%
[20]
  viability, T/C: 95.6%
[21]
  viability, T/C: 95.5%
[22]
  viability, T/C: 67.1%
[23]
  viability, T/C: 23.8%
[24]
  viability, T/C: 22.8%
[25]
  viability, T/C: 95.1%
[26]
  viability, T/C: 98.8%
[27]
  viability, T/C: 90.9%
[28]
  viability, T/C: 67.3%
[29]
  viability, T/C: 21.4%
[30]
  viability, T/C: 31.4%
[31]
  viability, T/C: 87.6%
[32]
  viability, T/C: 81.3%
[33]
  viability, T/C: 89%
[34]
  viability, T/C: 59.6%
[35]
  viability, T/C: 21.7%
[36]
  viability, T/C: 30.7%

## Cc1[nH]c2ccccc2c1CCNCc1ccc(/C=C/C(=O)NO)cc1 + Cc1[nH]c2ccc(F)cc2c1-c1nc2c3cccnc3c3ncccc3c2[nH]1
Second compound 0.0316 µM
  pIC50: 7.13
Second compound 0.1 µM
  pIC50: 7.12
Second compound 0.316 µM
  pIC50: 7.11
Second compound 1 µM
  pIC50: 7.16
Second compound 3.16 µM
  pIC50: 7.14
Second compound 10 µM
  pIC50: 7.09
Second compound 0.0316 µM, first compound 0.000999 µM
  viability, T/C: 107%
Second compound 0.0316 µM, first compound 0.00316 µM
  viability, T/C: 104%
Second compound 0.0316 µM, first compound 0.00999 µM
  viability, T/C: 104%
[1]
  viability, T/C: 85.7%
Second compound 0.0316 µM, first compound 0.0999 µM
  viability, T/C: 37.6%
[3]
  viability, T/C: 6.79%
Second compound 0.1 µM, first compound 0.000999 µM
  viability, T/C: 104%
Second compound 0.1 µM, first compound 0.00316 µM
  viability, T/C: 109%
Second compound 0.1 µM, first compound 0.00999 µM
  viability, T/C: 108%
[7]
  viability, T/C: 94.5%
Second compound 0.1 µM, first compound 0.0999 µM
  viability, T/C: 36%
[9]
  viability, T/C: 7.21%
Second compound 0.316 µM, first compound 0.000999 µM
  viability, T/C: 110%
Second compound 0.316 µM, first compound 0.00316 µM
  viability, T/C: 110%
Second compound 0.316 µM, first compound 0.00999 µM
  viability, T/C: 90.4%
[13]
  viability, T/C: 88.8%
Second compound 0.316 µM, first compound 0.0999 µM
  viability, T/C: 38.3%
[15]
  viability, T/C: 6.45%
Second compound 1 µM, first compound 0.000999 µM
  viability, T/C: 106%
Second compound 1 µM, first compound 0.00316 µM
  viability, T/C: 97.5%
Second compound 1 µM, first compound 0.00999 µM
  viability, T/C: 99.1%
[19]
  viability, T/C: 79.8%
Second compound 1 µM, first compound 0.0999 µM
  viability, T/C: 35.3%
[21]
  viability, T/C: 9.42%
Second compound 3.16 µM, first compound 0.000999 µM
  viability, T/C: 99.7%
Second compound 3.16 µM, first compound 0.00316 µM
  viability, T/C: 94.3%
Second compound 3.16 µM, first compound 0.00999 µM
  viability, T/C: 85.3%
[25]
  viability, T/C: 86.6%
Second compound 3.16 µM, first compound 0.0999 µM
  viability, T/C: 36.2%
[27]
  viability, T/C: 9.17%
Second compound 10 µM, first compound 0.000999 µM
  viability, T/C: 96.2%
Second compound 10 µM, first compound 0.00316 µM
  viability, T/C: 87.9%
Second compound 10 µM, first compound 0.00999 µM
  viability, T/C: 92.3%
[31]
  viability, T/C: 75.5%
Second compound 10 µM, first compound 0.0999 µM
  viability, T/C: 44.6%
[33]
  viability, T/C: 11%

## O=C(NO)c1cnc(N2CCN(S(=O)(=O)c3ccc4ccccc4c3)CC2)nc1 + Cc1[nH]c2ccc(F)cc2c1-c1nc2c3cccnc3c3ncccc3c2[nH]1
Second compound 0.0316 µM
  pIC50: 6.66
Second compound 0.1 µM
  pIC50: 6.44
Second compound 0.316 µM
  pIC50: 6.42
Second compound 1 µM
  pIC50: 6.32
Second compound 3.16 µM
  pIC50: 6.33
Second compound 10 µM
  pIC50: 6.27
[1]
  viability, T/C: 108%
[2]
  viability, T/C: 84.8%
[3]
  viability, T/C: 35.3%
[4]
  viability, T/C: 2.53%
[5]
  viability, T/C: 0.14%
[6]
  viability, T/C: 0.29%
[7]
  viability, T/C: 108%
[8]
  viability, T/C: 104%
[9]
  viability, T/C: 55.7%
[10]
  viability, T/C: 4.86%
[11]
  viability, T/C: 0.14%
[12]
  viability, T/C: 0.64%
[13]
  viability, T/C: 121%
[14]
  viability, T/C: 96.2%
[15]
  viability, T/C: 62.1%
[16]
  viability, T/C: 10%
[17]
  viability, T/C: 0.1%
[18]
  viability, T/C: 1.14%
[19]
  viability, T/C: 89.6%
[20]
  viability, T/C: 92.1%
[21]
  viability, T/C: 73%
[22]
  viability, T/C: 8.33%
[23]
  viability, T/C: 0.1%
[24]
  viability, T/C: 0.86%
[25]
  viability, T/C: 105%
[26]
  viability, T/C: 93.7%
[27]
  viability, T/C: 66.9%
[28]
  viability, T/C: 18.1%
[29]
  viability, T/C: 0.16%
[30]
  viability, T/C: 0.16%
[31]
  viability, T/C: 93.6%
[32]
  viability, T/C: 90.2%
[33]
  viability, T/C: 76.9%
[34]
  viability, T/C: 17.7%
[35]
  viability, T/C: 0.22%
[36]
  viability, T/C: 0.21%
